Laboratory results: US20220281848A1, “PYRAZOLE-SUBSTITUTED PYRROLIDINONES AS HERBICIDES” (FMC Corporation, priority 2019, published 2022)

Test system: plants
Assay: Test D pre-emergence, other plants of Tables D1 and D3
Type: in vivo
Settings: 20 DAA; for damage to plant (100=total damage to plant; 0=no damage to plant), BIDPI / damage to plant (100=total damage to plant; 0=no damage to plant), BRAPL / damage to plant (100=total damage to plant; 0=no damage to plant), CYPES / damage to plant (100=total damage to plant; 0=no damage to plant), EPHHL / damage to plant (100=total damage to plant; 0=no damage to plant), GLXMA / damage to plant (100=total damage to plant; 0=no damage to plant), IPOHE / damage to plant (100=total damage to plant; 0=no damage to plant), SORVU: preemergent; for CHEAL damage rating / GALAP damage rating / KCHSC damage rating / LOLPE damage rating / POAAN damage rating / STEME damage rating / VERPE damage rating: pre-emergence, 100=total damage, 0=no damage
Experimental: A formulation containing 50 g/L of the test chemical was prepared by dissolving the active ingredient in a mixture of organic solvents and emulsifier, details of which are provided in the table. This formulation was then mixed with a small, variable amount of acetone to aid dissolution, before addition of a 0.2% v/v aqueous solution of an adjuvant, as the aqueous diluent, to form an aqueous spray solution which contains a predetermined concentration of the active ingredient.
This aqueous spray solution was then sprayed onto plants including maize and wheat that had been seed treated with a herbicide safener, after one day's cultivation (for pre-emergence) or after about 12 days' cultivation (for post-emergence). The plants were grown from seeds sown in standard soil, placed in a glasshouse under controlled conditions (at 24/18° C. or 20/16° C., day/night; 16 h light; 65% humidity). After spray application the plants were then grown in a glasshouse under the same conditions and watered twice daily. After 15 d for post-emergence and 20 DAA for pre-emergence the test was evaluated (100=total damage to plant; 0=no damage to plant).

CN1CC(c2cc(C(F)(F)F)n(C)n2)C(C(=O)Nc2cccc(F)n2)C1=O (racemic) [Compound 24]
damage to plant (100=total damage to plant; 0=no damage to plant), BIDPI (rate 15): 0
damage to plant (100=total damage to plant; 0=no damage to plant), BIDPI (rate 30): 0
damage to plant (100=total damage to plant; 0=no damage to plant), BIDPI (rate 60): 0
damage to plant (100=total damage to plant; 0=no damage to plant), BIDPI (rate 130): 0
damage to plant (100=total damage to plant; 0=no damage to plant), BIDPI (rate 250): 0
damage to plant (100=total damage to plant; 0=no damage to plant), BIDPI (rate 500): 0
damage to plant (100=total damage to plant; 0=no damage to plant), BRAPL (rate 15): 0
damage to plant (100=total damage to plant; 0=no damage to plant), BRAPL (rate 30): 20
damage to plant (100=total damage to plant; 0=no damage to plant), BRAPL (rate 60): 30
damage to plant (100=total damage to plant; 0=no damage to plant), BRAPL (rate 130): 80
damage to plant (100=total damage to plant; 0=no damage to plant), BRAPL (rate 250): 80
damage to plant (100=total damage to plant; 0=no damage to plant), BRAPL (rate 500): 90
CHEAL damage rating (Rates 15): 0
CHEAL damage rating (Rates 30): 0
CHEAL damage rating (Rates 60): 0
CHEAL damage rating (Rates 130): 0
CHEAL damage rating (Rates 250): 40
CHEAL damage rating (Rates 500): 50
damage to plant (100=total damage to plant; 0=no damage to plant), CYPES (rate 15): 0
damage to plant (100=total damage to plant; 0=no damage to plant), CYPES (rate 30): 0
damage to plant (100=total damage to plant; 0=no damage to plant), CYPES (rate 60): 0
damage to plant (100=total damage to plant; 0=no damage to plant), CYPES (rate 130): 0
damage to plant (100=total damage to plant; 0=no damage to plant), CYPES (rate 250): 0
damage to plant (100=total damage to plant; 0=no damage to plant), CYPES (rate 500): 0
damage to plant (100=total damage to plant; 0=no damage to plant), EPHHL (rate 15): 0
damage to plant (100=total damage to plant; 0=no damage to plant), EPHHL (rate 30): 0
damage to plant (100=total damage to plant; 0=no damage to plant), EPHHL (rate 60): 0
damage to plant (100=total damage to plant; 0=no damage to plant), EPHHL (rate 130): 0
damage to plant (100=total damage to plant; 0=no damage to plant), EPHHL (rate 250): 0
damage to plant (100=total damage to plant; 0=no damage to plant), EPHHL (rate 500): 10
GALAP damage rating (Rates 15): 0
GALAP damage rating (Rates 30): 0
GALAP damage rating (Rates 60): 0
GALAP damage rating (Rates 130): 0
GALAP damage rating (Rates 250): 0
GALAP damage rating (Rates 500): 0
damage to plant (100=total damage to plant; 0=no damage to plant), GLXMA (rate 15): 0
damage to plant (100=total damage to plant; 0=no damage to plant), GLXMA (rate 30): 0
damage to plant (100=total damage to plant; 0=no damage to plant), GLXMA (rate 60): 0
damage to plant (100=total damage to plant; 0=no damage to plant), GLXMA (rate 130): 0
damage to plant (100=total damage to plant; 0=no damage to plant), GLXMA (rate 250): 0
damage to plant (100=total damage to plant; 0=no damage to plant), GLXMA (rate 500): 0
damage to plant (100=total damage to plant; 0=no damage to plant), IPOHE (rate 15): 0
damage to plant (100=total damage to plant; 0=no damage to plant), IPOHE (rate 30): 0
damage to plant (100=total damage to plant; 0=no damage to plant), IPOHE (rate 60): 0
damage to plant (100=total damage to plant; 0=no damage to plant), IPOHE (rate 130): 0
damage to plant (100=total damage to plant; 0=no damage to plant), IPOHE (rate 250): 0
damage to plant (100=total damage to plant; 0=no damage to plant), IPOHE (rate 500): 0
KCHSC damage rating (Rates 15): 0
KCHSC damage rating (Rates 30): 0
KCHSC damage rating (Rates 60): 0
KCHSC damage rating (Rates 130): 0
KCHSC damage rating (Rates 250): 0
KCHSC damage rating (Rates 500): 10
LOLPE damage rating (Rates 15): 0
LOLPE damage rating (Rates 30): 0
LOLPE damage rating (Rates 60): 0
LOLPE damage rating (Rates 130): 0
LOLPE damage rating (Rates 250): 0
LOLPE damage rating (Rates 500): 10
POAAN damage rating (Rates 15): 0
POAAN damage rating (Rates 30): 0
POAAN damage rating (Rates 60): 0
POAAN damage rating (Rates 130): 0
POAAN damage rating (Rates 250): 20
POAAN damage rating (Rates 500): 40
damage to plant (100=total damage to plant; 0=no damage to plant), SORVU (rate 15): 0
damage to plant (100=total damage to plant; 0=no damage to plant), SORVU (rate 30): 0
damage to plant (100=total damage to plant; 0=no damage to plant), SORVU (rate 60): 0
damage to plant (100=total damage to plant; 0=no damage to plant), SORVU (rate 130): 0
damage to plant (100=total damage to plant; 0=no damage to plant), SORVU (rate 250): 0
damage to plant (100=total damage to plant; 0=no damage to plant), SORVU (rate 500): 0
STEME damage rating (Rates 15): 0
STEME damage rating (Rates 30): 0
STEME damage rating (Rates 60): 0
STEME damage rating (Rates 130): 0
STEME damage rating (Rates 250): 10
STEME damage rating (Rates 500): 70
VERPE damage rating (Rates 15): 0
VERPE damage rating (Rates 30): 0
VERPE damage rating (Rates 60): 0
VERPE damage rating (Rates 130): 0
VERPE damage rating (Rates 250): 50
VERPE damage rating (Rates 500): 60
